Assay [1] relates to GSC8. The experiment in a line: Cell growth assay ([…]-GLO), GSC8 naïve. The assay is classed as cell-based, human. Conditions: for sensitivity / effect on cell growth (dose-response): 4 day treatment, GSC8 naïve. On the procedure: (§1) Patient-derived GSC culture lines were maintained in Neurobasal medium (Life Technologies) supplemented with N2/B27, penicillin/streptomycin (Life Technologies), GlutaMAX (Life Technologies), recombinant human EGF (20 ng/mL, R & D systems), and recombinant human FGF2 (20 ng/mL, R & D systems). For drug persister cultures, fresh compound and media were replenished every 4-6 days.
(§2) Freshly dissociated single cell suspensions were plated (96-well) in triplicate or quadruplicate at 1,000 to 10,000 cells/well for testing. For 4 day growth assays, […]-GLO® Luminescent Cell Viability Assay (Promega) was added to wells and end point luminescence was measured (BioTek Synergy HT Platereader). For 12 day assays, 1× compound in media was added at day 4 and all wells were replated with fresh media and compound at day 8 before viability was measured at day 12. For each inhibitor, n=3 replicates were used for each concentration and was repeated in two to four independent experiments.

The test system of assay [2] is GSC8^Per. The experiment in a line: Cell growth assay (CELLTITER-GLO), dasatinib persisters GSC8^Per. As to conditions: for growth, 12 day treatment: GSC8^Per vs GSC8 naïve; for sensitivity / effect on cell growth (dose-response): 4 day treatment, GSC8^Per (>8 weeks dasatinib). The assay is classed as cell-based, human. On the procedure:
as §1, §2
(In general: ATP-based viability assays read luminescence as a measure of living cells.)

The subject of assay [3] is GSC8^12d. Put plainly: Cell growth assay (CELLTITER-GLO), GSC8 treated 12 days with dasatinib. The assay is classed as cell-based, human. Conditions: 4 day treatment. On the procedure: as §1, §2
Assay [4] relates to H3K27me3. The experiment in a line: H3K27me3 ChIP-seq in GSC8. The assay is classed as cell-based, human. On the procedure: Chromatin Immunoprecipitation (ChIP) was performed as previously described (Suvà et al., 2014). Briefly, formaldehyde-fixed cells were lysed and sheared (Branson […]) on wet ice. The sheared chromatin was cleared and incubated overnight at 4° C. with the following antibodies: H3K4me3 (Millipore, 07-473, Lot 2207275), H3K27me3 (Millipore, 07-449, lot 2382150), H3K27ac (Active Motif, 39133 lot 25812006), RBPJ (Abcam, ab25949, lot GR169397-1), and cleaved Notch1 (CST, 4147, lot #4). Antibody-chromatin complexes were immunoprecipitated with protein G magnetic Dynal beads (Life Technologies), washed, eluted, reverse crosslinked, and treated with RNAse A followed by proteinase K. ChIP DNA was purified using Ampure XP beads (Beckmann Coulter) and then used to prepare sequencing libraries for sequencing with the Next-Seq Illumina genome analyzer. Reads were aligned to hg19 using BWA (Li and Durbin, 2009) and identical ChIP-seq sequence reads were collapsed to avoid PCR duplicates. In order to avoid possible saturation biases, reads were downsampled to approximately similar numbers ( 20 million reads). […] Quantification of the H3K27me3 ChIP-seq signals, using fore- and background normalization, was essentially performed as outlined in (Zhu et al., 2013) with few modifications. To exclude genomic regions with potential copy number aberrations, read counts derived from whole cell extracts ChIP-seq within 5 kb genomic windows were quantified. Read counts were performed using interval overlap functions of the R package Genomic Ranges (Lawrence et al., 2013). To compute normalization constants, all genomic windows with read counts equal to 0 or greater than 3 standard deviations from the mean were excluded from the analysis. For a given H3K27me3 ChIP-seq data set, the background constant was estimated as the median of the read count distribution within 5 kb windows overlapping the 5% most highly expressed genes, as active genes are considered to be devoid of repressive chromatin modifications. […]

The test system of assay [5] is H3K4me3. The experiment in a line: H3K4me3 ChIP-seq in GSC8. In kind it is cell-based, human. As to conditions: for H3K4me3 peak width / level: naïve GSCs, KDM5-C70 2.5 μM or GSKJ4 1.5 μM, 4 d. On the procedure: Chromatin Immunoprecipitation (ChIP) was performed as previously described (Suvà et al., 2014). Briefly, formaldehyde-fixed cells were lysed and sheared (Branson […]) on wet ice. The sheared chromatin was cleared and incubated overnight at 4° C. with the following antibodies: H3K4me3 (Millipore, 07-473, Lot 2207275), H3K27me3 (Millipore, 07-449, lot 2382150), H3K27ac (Active Motif, 39133 lot 25812006), RBPJ (Abcam, ab25949, lot GR169397-1), and cleaved Notch1 (CST, 4147, lot #4). Antibody-chromatin complexes were immunoprecipitated with protein G magnetic Dynal beads (Life Technologies), washed, eluted, reverse crosslinked, and treated with RNAse A followed by proteinase K. ChIP DNA was purified using Ampure XP beads (Beckmann Coulter) and then used to prepare sequencing libraries for sequencing with the Next-Seq Illumina genome analyzer. Reads were aligned to hg19 using BWA (Li and Durbin, 2009) and identical ChIP-seq sequence reads were collapsed to avoid PCR duplicates. In order to avoid possible saturation biases, reads were downsampled to approximately similar numbers ( 20 million reads). Peaks were called using HOMER v4.6 (Heinz et al., 2010) using matched inputs with the following parameters: H3K4me3, -histone -tagThreshold 30; H3K27ac, -histone -tagThreshold 50; H3K27me3, -histone -size 3000 -[…] 0.1; Notch1 ICD, -factor; and RBPJ, -factor. […] Quantification of the H3K27me3 ChIP-seq signals, using fore- and background normalization, was essentially performed as outlined in (Zhu et al., 2013) with few modifications. To exclude genomic regions with potential copy number aberrations, read counts derived from whole cell extracts ChIP-seq within 5 kb genomic windows were quantified. Read counts were performed using interval overlap functions of the R package Genomic Ranges (Lawrence et al., 2013). To compute normalization constants, all genomic windows with read counts equal to 0 or greater than 3 standard deviations from the mean were excluded from the analysis. For a given H3K27me3 ChIP-seq data set, the background constant was estimated as the median of the read count distribution within 5 kb windows overlapping the 5% most highly expressed genes, as active genes are considered to be devoid of repressive chromatin modifications. The foreground signal was estimated as the median of the read count distribution within 5 kb windows centered around each called peak and subtracting the background signal. To quantify H3K27me3 signal within 5 kb regions of interest, the background signal was subtracted from the corresponding read count and the resulting value divided by the foreground signal. […] In order to quantify ChIP-seq intensities within genomic regions of different sizes (e.g. genes), the obtained normalization constants were scaled accordingly. […]

For assay [6], the system named is GSC8 PD0325901^Per. Put plainly: Cell growth assay ([…]-GLO), MEK inhibitor persisters. In kind it is cell-based, human. As to conditions: 4 day treatment; persisters from sustained MEK inhibition. On the procedure: as §1, §2
The subject of assay [7] is KDMs. Put plainly: qRT-PCR of KDM gene expression in GSC8. The assay is classed as cell-based, human. As to conditions: 48 hr drug treatment in GSC8. On the procedure: Whole RNA was extracted from 1-3×10^6 cells using the QIAGEN RNeasy kit according to the manufacturer's protocol. For qRT-PCR, total RNA was reverse-transcribed into cDNA (High Capacity cDNA Reverse Transcriptase Kit, Applied Biosystems) and qRT-PCR amplification was performed using fast SYBR Green Master Mix (Life Technologies) with specific PCR primers for genes of interest and 18S as an endogenous control. Relative quantification for each target was performed using the comparative Ct method (Applied Biosystems). For RNA-seq library preparation, Poly(A)^+ RNA was enriched using magnetic oligo(dT)-beads (Life Technologies) and libraries were prepared as previously described (Gifford et al., 2013). Sequences for qRT-PCR primers used are listed at Table 3.
In general terms: In qPCR the cycle at which signal appears reflects the starting amount.

The subject of assay [8] is GSC8. Put plainly: Flow cytometry for Ki67 and EdU incorporation in GSC8. As to conditions: 1 μM. On the technique in general: A flow cytometer gives signals particle by particle.

Molecules are shown by their SMILES. Entries after “also recorded” stand apart in the source; their conditions may differ.

As for `C[C@H](NC(=O)Cc1cc(F)cc(F)c1)C(=O)N[C@H]1N=C(c2ccccc2)c2ccccc2N(C)C1=O` [Compound E], the “growth, 12 day treatment” value in assay [1] (12 day treatment, naïve GSC8) is “little effect”; in assay [2], “preferentially sensitive”; in assay [2] (listed as Notch inhibitor (γ-secretase)) it was “significantly reduced”.

As to `CCOC(=O)CCNc1cc(N2CCc3ccccc3CC2)nc(-c2ccccn2)n1` [GSKJ4], the “sensitivity / effect on cell growth (dose-response)” value (shortened to “sensitivity / effect on cell growth”) in assay [3] is “preferentially sensitive; also recorded: significantly compromised viability”; in assay [1] it was “well tolerated”; in assay [6], “preferentially sensitive”; in assay [2], “preferentially sensitive; also recorded: significantly compromised viability”. Also, the “rescue of H3K27me3 loss associated with dasatinib treatment” value in assay [4] (GSC8^12d, GSKJ4 1.5 μM, 8 d, after 4 days of dasatinib) is on record as “rescued the dramatic H3K27me3 loss”. For the same molecule, the “effect on pre-existing H3K27me3 landscape” value in assay [4] (naïve GSC8, 1.5 μM, 8 d) was “negligible effects”. Further, the “H3K4me3 peak width / level” value in assay [5] is reported as “did not significantly increase H3K4me3”.

In the case of `CCOC(=O)CCNc1cc(N2CCc3ccccc3CC2)nc(-c2cccnc2)n1` [GSKJ5], the “sensitivity / effect on cell growth” value in assay [2] is on record as “no preferential sensitivity; also recorded: Negligible differential effects”.

In the case of `CCOC(=O)c1ccnc(CNCC(=O)N(CC)CCN(C)C)c1` [KDM5-C70], the “sensitivity / effect on cell growth” value in assay [3], in assay [1] and in assay [2] was “subtle effects on proliferation” throughout. Moreover, in assay [5], the “H3K4me3 peak width / level” value is “caused H3K4me3 peaks to expand; also recorded: H3K4me3 peak width increases”. Besides, the “rescue of H3K4me3 reduction associated with dasatinib treatment” value in assay [5] (with 4 day dasatinib) was “partially rescued; also recorded: significantly attenuated H3K4me3 reduction”. Further, the “effect on dasatinib dose-response curve” value in assay [1] (4 day, GSC8 naïve simultaneously treated with KDM5-C70 2.5 μM vs vehicle) is listed as “No significant effect”.

On to `O=C(NOC[C@H](O)CO)c1ccc(F)c(F)c1Nc1ccc(I)cc1F` [PD0325901], for which, in assay [7], the KDM gene expression entry is given as “KDM induction; also recorded: up-regulation of numerous KDMs”. The “sensitivity / effect on cell growth” value in assay [1] is “differentially sensitive”.

On to `CC1(COc2ccc3c(c2)ncn3-c2ccc3cccc(N4CCC(N)CC4)c3n2)COC1` [crenolanib], for which the entries for the “sensitivity / effect on cell growth” value in assay [1] and in assay [2] were “preferentially sensitive” and “relatively insensitive; also recorded: tolerated higher concentrations”, respectively.

Usually IC50 stands for the point on the concentration scale where inhibition reaches its midpoint. As for `Cc1nc(Nc2ncc(C(=O)Nc3c(C)cccc3Cl)s2)cc(N2CCN(CCO)CC2)n1` [dasatinib], the “H3K27me3 peaks after drug treatment” value in assay [4] (GSC8^12d, GSC8^Per, GSC8 PD0325901^Per) was “strongly reduced”. Moreover, in assay [8] (4 d), the “cell cycle effect (Ki67 / EdU)” value is “induced cell cycle arrest and G0 induction”. Also, the “Ki67^+ cells” value in assay [8] (after 4 days of dasatinib, 93% in naïve) is given as 17%. For the same molecule, the “H3K4me3 at cell cycle-associated promoters” value in assay [5] (short-term dasatinib treatment) is reported as “reduced”. In assay [1] (Homo sapiens, 96 h), the IC50 is about 0.01 µM. Besides, the “sensitivity / effect on cell growth” value in assay [2] is “relatively insensitive; also recorded: tolerated higher concentrations”.
